# Data reported in US5849526A, “Use of linalool synthase in genetic engineering of scent production” (The Regents of the University of Michigan, priority 1996, dated 1998).
# Where two headings read alike, the source gives them in different places.
# T1: C. breweri S-linalool synthase (Clarkia breweri, UniProt Q96376)
# T1 construct: active as monomer; not recombinant
# T1 sequence (Q96376 1-870): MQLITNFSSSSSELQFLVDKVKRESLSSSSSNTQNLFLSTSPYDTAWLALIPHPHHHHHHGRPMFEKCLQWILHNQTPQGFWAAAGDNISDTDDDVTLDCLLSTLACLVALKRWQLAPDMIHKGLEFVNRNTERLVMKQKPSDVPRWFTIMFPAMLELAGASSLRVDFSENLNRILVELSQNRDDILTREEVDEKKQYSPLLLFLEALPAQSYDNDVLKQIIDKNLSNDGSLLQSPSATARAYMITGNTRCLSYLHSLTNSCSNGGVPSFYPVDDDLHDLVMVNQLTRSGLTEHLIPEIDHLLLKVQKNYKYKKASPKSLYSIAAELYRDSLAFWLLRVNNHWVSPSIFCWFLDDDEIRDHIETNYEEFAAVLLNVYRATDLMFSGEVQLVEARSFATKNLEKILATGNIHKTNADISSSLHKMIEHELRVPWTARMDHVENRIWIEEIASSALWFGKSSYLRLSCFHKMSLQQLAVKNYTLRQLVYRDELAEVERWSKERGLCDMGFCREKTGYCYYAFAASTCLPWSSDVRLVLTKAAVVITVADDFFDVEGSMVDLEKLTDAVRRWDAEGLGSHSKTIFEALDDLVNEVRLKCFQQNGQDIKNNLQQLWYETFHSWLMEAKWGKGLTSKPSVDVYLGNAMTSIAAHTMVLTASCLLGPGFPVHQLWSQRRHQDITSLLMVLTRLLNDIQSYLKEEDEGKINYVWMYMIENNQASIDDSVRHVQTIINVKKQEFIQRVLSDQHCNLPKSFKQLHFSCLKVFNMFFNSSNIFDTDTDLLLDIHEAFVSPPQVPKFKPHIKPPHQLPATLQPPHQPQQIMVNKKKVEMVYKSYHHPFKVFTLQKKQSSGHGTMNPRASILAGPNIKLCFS
# T2: LIS (linalool synthase) in crude extracts (Clarkia breweri, UniProt Q96376)
# T2 sequence (Q96376 1-870): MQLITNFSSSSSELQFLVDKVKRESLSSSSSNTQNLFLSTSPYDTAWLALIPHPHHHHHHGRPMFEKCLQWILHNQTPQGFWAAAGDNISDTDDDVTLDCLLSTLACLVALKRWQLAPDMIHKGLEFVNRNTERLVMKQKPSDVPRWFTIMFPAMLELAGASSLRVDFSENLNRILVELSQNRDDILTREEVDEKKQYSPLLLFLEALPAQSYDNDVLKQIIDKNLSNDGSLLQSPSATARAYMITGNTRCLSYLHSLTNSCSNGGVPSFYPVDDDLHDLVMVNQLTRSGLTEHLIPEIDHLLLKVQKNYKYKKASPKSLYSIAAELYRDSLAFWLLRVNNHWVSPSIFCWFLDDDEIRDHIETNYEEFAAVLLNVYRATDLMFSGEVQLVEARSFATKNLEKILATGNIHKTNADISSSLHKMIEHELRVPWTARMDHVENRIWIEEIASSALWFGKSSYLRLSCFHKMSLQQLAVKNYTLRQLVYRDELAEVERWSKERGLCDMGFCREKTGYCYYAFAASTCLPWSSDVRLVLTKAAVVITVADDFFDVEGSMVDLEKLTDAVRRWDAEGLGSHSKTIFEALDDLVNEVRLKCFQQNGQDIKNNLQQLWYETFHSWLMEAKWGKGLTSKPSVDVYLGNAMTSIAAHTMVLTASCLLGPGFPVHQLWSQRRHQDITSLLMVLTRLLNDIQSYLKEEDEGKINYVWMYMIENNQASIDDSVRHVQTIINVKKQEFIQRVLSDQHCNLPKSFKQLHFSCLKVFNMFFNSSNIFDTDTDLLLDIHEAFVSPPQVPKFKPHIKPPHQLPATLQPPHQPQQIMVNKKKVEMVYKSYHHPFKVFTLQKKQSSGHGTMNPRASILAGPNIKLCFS
# B1: LIS: S-linalool synthase purified from stigmata of C. breweri (Mono Q purified enzyme used for characterization), SEQ ID NO:2 (protein)
# chain: MQLITNFSSSSSELQFLVDKVKRESLSSSSSNTQNLFLSTSPYDTAWLALIPHPHHHHHHGRPMFEKCLQWILHNQTPQGFWAAAGDNISDTDDDVTLDCLLSTLACLVALKRWQLAPDMIHKGLEFVNRNTERLVMKQKPSDVPRWFTIMFPAMLELAGASSLRVDFSENLNRILVELSQNRDDILTREEVDEKKQYSPLLLFLEALPAQSYDNDVLKQIIDKNLSNDGSLLQSPSATARAYMITGNTRCLSYLHSLTNSCSNGGVPSFYPVDDDLHDLVMVNQLTRSGLTEHLIPEIDHLLLKVQKNYKYKKHHQNHCIALLRNYTGFISIFGCFESIITGYHHQFFCWFLDDDEIRDHIETNYEEFAAVLLNVYRATDLMFSGEVQLVEARSFATKNLEKILATGNIHKTNADISSSLHKMIEHELRVPWTARMDHVENRIWIEEIASSALWFGKSSILRLSCFHKMSLQQLAVKNYTLRQLVYRDELAEVERWSKERGLCDMGFCREKTGYCYYAFAASTCLPWSSDVRLVLTKAAVVITVADDFFDVEGSMVDLEKLTDAVRRWDAEGLGSHSKTIFEALDDLVNEVRLKCFQQNGQDIKNNLQQLWYETFHSWLMEAKWGKGLTSKPSVDVYLGNAMTSIAAHTMVLTASCLLGPGFPVHQLWSQRRHQDITSLLMVLTRLLNDIQSYLKEEDEGKINYVWMYMIENNQASIDDSVRHVQTIINVKKQEFIQRVLSDQHCNLPKSFKQLHFSCLKVFNMFFNSSNIFDTDTDLLLDIHEAFVSPPQVPKFKPHIKPPHQLPATLQPPHQPQQIMVNKKKVEMVYKSYHHPFKVFTLQKKQSSGHGTMNPRASILAGPNIKLCFS
# Columns and labels:
# [1] = molecular target: T1, C. breweri S-linalool synthase; experiment: S-linalool synthase (LIS) enzyme assay: conversion of [1-3H]-GPP to linalool, hexane/pentane overlay, scintillation counting or radio-GC; assay type: biochemical; conditions: for rate of conversion to linalool relative to the rate for GPP: LPP enantiomers tested as alternate substrates; for Rate (substrate specificity, relative to GPP = 100%): putative substrates tested at 12 μM, averages and SE of four replicate determinations; for whether the divalent metal ion supports the enzymatic reaction (Neither ... nor ... support): at 1 to 10 mM, as the chloride salts; for efficiency of divalent metal ion as cofactor (in words): Mg2+ substituting for Mn2+; for effect of detergent on enzyme activity: 0.1% w/v (SDS at similar levels); for Specific Activity: by purification step, starting material 10 g excised stigmata
# Protocol: The crude extract (100 ml) was loaded onto a DEAE-cellulose (0.7 cm diam.×6 cm) column (Whatman, DE52) that was pre-equilibrated with a solution containing 50 mM BisTris, pH 6.9, 10% glycerol and 10 mM DTT (buffer A) at a flow rate of about 1 ml/min. Following elution of the unadsorbed material, the column was washed with 50 ml of buffer A followed by an additional 20 ml of buffer A containing 150 mM KCl. LIS activity was then eluted with 20 ml of buffer A containing 250 mM KCl. Fractions with the highest LIS activity (about 60% yield, 10 ml), were either pooled and used immediately, or frozen at -20° C. for up to 1 month with less than 20% loss of activity. The DEAE-cellulose purified fractions were diluted 2-fold with ice-cold buffer A, and loaded on a 1 cm diam.×10cm hydroxyapatite column (Bio-Gel HT, Bio-Rad, Richmond, Calif.) installed in a Pharmacia FPLC apparatus, and pre-equilibrated with 100 ml of buffer A, at a flow rate of 0.5 ml/min. After the enzyme was loaded, the column was washed with 20 ml buffer A and then eluted using a linear gradient (100 ml) from 0 to 200 mM Na-phosphate in buffer A. The fractions containing LIS activity, eluting at about 100 mM Na-phosphate, were pooled (10 to 16 ml) and loaded on a pre-packed Pharmacia Mono-Q HR 5/5 FPLC column equilibrated with buffer A. After a 20-ml wash with buffer A, a steep linear gradient from 0 to 100 mM KCl in buffer A (10 ml) was applied, followed by a more gradual linear gradient from 100 to 400 mM KCl in buffer A (100 ml, 0.25 ml/min). The enzyme consistently eluted at about 220 mM KCl. After dialysis to assay conditions, the enzyme at this level of purity was used for characterization.
# After incubation, the assay mixture was briefly mixed again to extract non-polar products into the organic layer. An 800-μl aliquot of the hexane phase was placed into a scintillation vial containing 10 ml of a cocktail of 0.4% (w/v) Omnifluor (Du Pont, Boston Mass.) dissolved in 30% (v/v) ethanol in toluene and counted in a Packard TriCarb 460 CD scintillation spectrometer (efficiency for ^3 H=36%) to determine the total monoterpene synthase activity. To examine in detail the products formed, radio-GC was performed as described (Croteau et al., 1990). For this purpose, the 2 ml pentane extract containing the enzymatically formed ^3 H-labeled products was removed, dried by passage through MgSO4, and internal standards were added (10 μg each of linalool and geraniol; nerol was UD also included in initial experiments). The mixture was then concentrated to ~10 μl under a gentle stream of nitrogen, and an aliquot (2-3 μl) was injected into a Gow-Mac 550P radio gas chromatograph fitted with a 0.125 in ×12 ft stainless steel column loaded with AT-1000 (Gas Chrom Q, Alltech), attached to a Packard 894 gas proportional counter. The initial column temperature was 170° C. and, following a 5 min hold, was programmed at 5° C./min to 220° C., using He at a flow rate of 50 ml/min. Control incubations included the omission of enzyme extract, the use of boiled enzyme extract, the omission of substrate, and the omission of divalent cations. All of these controls produced negligible radioactivity in the hexane phase of the enzyme assay mixtures.
# The enantiomeric composition of linalool samples was determined on a fused silica capillary column (0.25 mm internal diam.×30 m) coated with a 0.25 μm film of β-cyclodextrin (J & W Scientific, Cyclodex B), operated at an initial temperature of 75° C. for 15 min followed by a rise of 5° C./min to 200° C. H2 at a head pressure of 13.5 psi was used as carrier gas (Alonso et al., 1992).
# [2] = molecular target: T2, LIS (linalool synthase) in crude extracts; experiment: LIS activity assay in crude extracts of open C. breweri flowers; assay type: biochemical
# Protocol: LIS activity was assayed by combining crude extract with ^3 H-GPP (or other substrates) in a buffer containing co-factors. LIS activity was monitored by counting the radioactive linalool extracted from the assay buffer with hexane (GPP is not soluble in hexane) in a scintillation counter. Radio-GC analyses (Croteau et al., 1990) were also undertaken because GPP could be enzymatically hydrolyzed by non-specific phosphatases to produce geraniol, or the tissue might contain other monoterpene synthases, and geraniol or the other monoterpenes that may be produced are also soluble in the organic phase. […] Furthermore, with a special stereo-GC column it was also shown that the product of the reaction is exclusively S-linalool.
# A crude protein extract was prepared by macerating flower parts in a microcentrifuge tube in the presence of ice-cold buffer (10 volumes:fresh weight) containing 50 mM BisTris-HCl pH 6.9, 10 mM DTT, 5 mM Na2 S2 O5, 1% (w/v) PVP-40 and 10% (v/v) glycerol. The slurry was centrifuged for 10 min and the supernatant transferred to a new tube. For each time point, extracts of 3 to 5 flowers from 3 different plants were combined. […]
# After 1 h, the tube was vortexed again and the amount of the radioactive linalool product, which partitioned into the organic phase, was determined by an LSC of an aliquot. […]
# [3] = divalent metal ion required for activity, read-out: Km of divalent metal ion cofactor
molecule,measurement,setting,value
"[3H]C=C[C@@](C)(CCC=C(C)C)OP(=O)(O)OP(=O)(O)O [3R-[1-^3 H]Linalyl pyrophosphate, reference compound]",rate of conversion to linalool relative to the rate for GPP,[1],essentially not converted to linalool
same,"Rate (substrate specificity, relative to GPP = 100%)",[1],0.6 ± 0.6%
"[3H]C=C[C@](C)(CCC=C(C)C)OP(=O)(O)OP(=O)(O)O [3S-[1-^3 H]Linalyl pyrophosphate, reference compound]",rate of conversion to linalool relative to the rate for GPP,[1],15%
same,"Rate (substrate specificity, relative to GPP = 100%)",[1],15.1 ± 6.0%
[Ca+2] [Ca^2+],whether the divalent metal ion supports the enzymatic reaction (Neither ... nor ... support),[1],Neither
[Co+2] [Co^2+],whether the divalent metal ion supports the enzymatic reaction (Neither ... nor ... support),[1],Neither
[Cu+2] [Cu^2+],whether the divalent metal ion supports the enzymatic reaction (Neither ... nor ... support),[1],Neither
"CC(C)=CCC/C(C)=C/COP(=O)(O)OP(=O)(O)O [GPP, Geranyl Pyrophosphate, reference compound]",Km,"[1]; calculated from a Lineweaver-Burk plot, purified enzyme, read-out: Km value for GPP",0.9 µM
same,"Rate (substrate specificity, relative to GPP = 100%)",[1],100 ± 9.6%
same,Rate with GPP corresponding to 100%,"[1]; substrate at 12 μM, Table 6 footnote b",22. 2 pkat/mg protein
same,cofactor / substrate requirement of LIS activity,[2],the only substrate
[Mg+2] [Mg^2+],efficiency of divalent metal ion as cofactor (in words),[1],half the rate
same,Km,[1]; [3],330 µM
[Mn+2] [Mn^2+],efficiency of divalent metal ion as cofactor (in words),[1],most efficient
same,Km,[1]; [3],45 µM
[Zn+2] [Zn^2+],whether the divalent metal ion supports the enzymatic reaction (Neither ... nor ... support),[1],Neither
"CCCCCCCCCCCCOS(=O)(=O)[O-].[Na+] [sodium dodecyl sulfate, reference compound]",effect of detergent on enzyme activity,[1],complete loss of activity
Hydroxyapatite,Specific Activity,[1],44.1 pkat mg^-1
same,specific activity of preparation loaded on Superdex 75,[1]; hydroxyapatite-purified enzyme,44.1 pkat/mg protein
Triton-X-100 [reference compound],effect of detergent on enzyme activity,[1],no effect on enzyme activity
B1,pH optimum,[1]; broad optimum,7.4
same,Specific Activity,[1],395 pkat mg^-1
same,stability to vigorous vortexing with non-polar organic solvents,[1]; hexane and pentane,very stable
same,loss of activity in the absence of DTT,[1]; over 2 h at 4° C.,> 95%
same,rate at pH 6.4 and 8.4 relative to the optimal,[1]; pH 6.4 and 8.4,~ 80%
same,turnover number,[1]; under saturating conditions,31.6 s⁻¹
